These results are taken from patent US20220259196A1, “2-AMINOPYRIMIDINE COMPOUND AND USES THEREOF” (Shenyang Pharmaceutical University, priority 2019, published 2022).

One assay deals with JAK2 (Homo sapiens, UniProt O60674). As to the kind of experiment: in vitro JAK2 kinase activity test, Mobility Shift Assay. Format: biochemical. To be noted: compound concentration 0.1 μM; read-out: Percentage of inhibition against JAK2 at 0.1 μM. As to the method:
The in vitro JAK2 and FLT3 kinase activity test was performed on the compounds of the 2-aminopyrimidine backbone of the above formula I (concentration 0.1 μM) according to the present invention using Mobility Shift Assay. The control compounds Pacritinib and Fedratinib were prepared by our research group.
(§1) The kinase buffer was composed of 50 mM HEPEs (pH 7.5) and 0.0015% BRIJ-35. The stop buffer contained a mixture of 100 mM HEPES (pH 7.5), 0.015% BRIJ-35, 0.2% coating reagent #3 and 50 mM EDTA. The compound to be tested was diluted with 100% DMSO to 50 times the highest concentration required in the reaction. The dilution of compound to be tested (100 μL) was transferred to the wells of a 96-well plate. […] was added to two wells of the plate as a control group and the plate was marked as the source plate. 10 μL of compound was transferred from the source plate to a new 96-well plate to prepare an intermediate plate. In the intermediate plate, an additional 90 μL of kinase buffer was added to each well. The intermediate plate was shaken for 10 minutes, and then 5 μL of each well of the 96-well intermediate plate was copied to a 384-well plate as an analysis plate. The prepared enzyme solution was added to each well of the 384-well plate, then incubated at room temperature for 10 minutes, and then 10 μL of the prepared peptide solution (FAM-labeled peptide and ATP in kinase-based buffer) was added. The sample was incubated at 28° C. for 1 hours, and then 25 μL of buffer was added. The conversion data from the Caliper program was copied and converted to the inhibition rate.
(§2) Inhibition rate (%)=(max−conversion)/(max−min)×100.

The target of another assay is T1, FLT3 (Homo sapiens, UniProt P36888).
T1 sequence (P36888 27-993): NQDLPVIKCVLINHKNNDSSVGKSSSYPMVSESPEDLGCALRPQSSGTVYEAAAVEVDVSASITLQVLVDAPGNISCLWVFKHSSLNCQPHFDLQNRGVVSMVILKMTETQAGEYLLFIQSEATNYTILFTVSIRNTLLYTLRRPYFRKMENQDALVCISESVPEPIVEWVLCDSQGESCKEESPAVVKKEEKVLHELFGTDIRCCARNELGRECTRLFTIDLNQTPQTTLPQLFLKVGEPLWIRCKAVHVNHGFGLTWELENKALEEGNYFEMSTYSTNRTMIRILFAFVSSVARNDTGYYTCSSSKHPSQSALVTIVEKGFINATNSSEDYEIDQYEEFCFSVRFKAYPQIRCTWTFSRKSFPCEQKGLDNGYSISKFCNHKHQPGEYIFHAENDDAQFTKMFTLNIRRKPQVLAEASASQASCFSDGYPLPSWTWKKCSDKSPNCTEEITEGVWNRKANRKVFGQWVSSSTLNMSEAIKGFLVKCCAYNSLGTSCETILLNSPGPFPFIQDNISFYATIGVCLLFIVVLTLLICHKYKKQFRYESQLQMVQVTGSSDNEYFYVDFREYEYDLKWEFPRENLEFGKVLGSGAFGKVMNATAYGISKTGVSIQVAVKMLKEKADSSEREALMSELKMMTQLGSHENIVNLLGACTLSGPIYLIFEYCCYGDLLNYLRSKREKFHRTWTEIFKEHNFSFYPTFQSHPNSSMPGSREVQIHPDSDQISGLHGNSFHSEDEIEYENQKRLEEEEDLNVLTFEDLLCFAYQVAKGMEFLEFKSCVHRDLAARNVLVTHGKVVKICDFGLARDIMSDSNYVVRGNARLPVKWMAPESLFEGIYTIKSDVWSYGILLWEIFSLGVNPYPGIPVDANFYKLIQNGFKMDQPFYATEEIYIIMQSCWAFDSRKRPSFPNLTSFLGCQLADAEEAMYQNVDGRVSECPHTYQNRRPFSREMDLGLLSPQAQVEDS
Nature of the assay: in vitro FLT3 kinase activity test, Mobility Shift Assay. The note with it: compound concentration 0.1 μM; read-out: Percentage of inhibition against FLT3 at 0.1 μM. Format: biochemical. How it is done: The in vitro JAK2 and FLT3 kinase activity test was performed on the compounds of the 2-aminopyrimidine backbone of the above formula I (concentration 0.1 μM) according to the present invention using Mobility Shift Assay.
as §1, §2

Structures are written as SMILES.

Chain of JAK2 (O60674 whole entry): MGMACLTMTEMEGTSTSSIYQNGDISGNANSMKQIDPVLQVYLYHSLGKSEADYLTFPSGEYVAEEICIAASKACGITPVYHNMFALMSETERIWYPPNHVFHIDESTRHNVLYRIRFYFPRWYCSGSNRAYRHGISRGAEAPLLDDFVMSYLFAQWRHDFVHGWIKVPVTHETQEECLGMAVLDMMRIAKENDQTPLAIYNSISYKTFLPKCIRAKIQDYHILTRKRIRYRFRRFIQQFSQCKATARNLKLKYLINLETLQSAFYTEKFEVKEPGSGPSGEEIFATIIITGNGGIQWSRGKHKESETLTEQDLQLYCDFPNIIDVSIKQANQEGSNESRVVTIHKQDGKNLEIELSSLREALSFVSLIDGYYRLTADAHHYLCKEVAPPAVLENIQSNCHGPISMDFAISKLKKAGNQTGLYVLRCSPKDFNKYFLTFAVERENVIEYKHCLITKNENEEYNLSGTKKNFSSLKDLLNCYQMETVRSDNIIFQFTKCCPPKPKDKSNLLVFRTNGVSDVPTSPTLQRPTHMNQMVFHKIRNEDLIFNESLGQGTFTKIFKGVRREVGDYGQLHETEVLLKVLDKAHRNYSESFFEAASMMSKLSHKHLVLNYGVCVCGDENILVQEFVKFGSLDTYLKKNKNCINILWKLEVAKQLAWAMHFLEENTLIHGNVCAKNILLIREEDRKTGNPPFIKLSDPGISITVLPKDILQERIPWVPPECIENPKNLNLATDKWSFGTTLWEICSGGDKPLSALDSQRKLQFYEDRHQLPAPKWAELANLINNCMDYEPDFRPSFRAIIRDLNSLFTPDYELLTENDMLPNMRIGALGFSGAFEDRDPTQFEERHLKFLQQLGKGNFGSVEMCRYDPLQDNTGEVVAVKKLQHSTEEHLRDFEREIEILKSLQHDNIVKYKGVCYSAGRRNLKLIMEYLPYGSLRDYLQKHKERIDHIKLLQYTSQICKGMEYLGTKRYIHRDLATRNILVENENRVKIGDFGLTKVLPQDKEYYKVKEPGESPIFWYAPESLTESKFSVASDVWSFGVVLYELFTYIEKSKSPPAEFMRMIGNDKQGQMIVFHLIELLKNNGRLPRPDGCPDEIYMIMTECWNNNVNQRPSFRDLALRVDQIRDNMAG

On to `CC(=O)c1ccc(NC(=O)N2CCN(c3ccnc(Nc4ccc(OCCN5CCCC5)cc4)n3)CC2)cc1` [Example 16, N-(4-acetylphenyl)-4-[2-({4-[2-(pyrrolidin-1-yl)ethoxy]phenyl}amino)pyrimidin-4-yl]piperazine-1-carboxamide], for which the inhibition (as a rule, the share of the control response that was lost under treatment) at 0.1 µM on JAK2 came to 45%; on FLT3, 69%.
Taken in the same sequence, the figures for `O=C(Nc1ccccc1)N1CCN(c2ccnc(Nc3ccc(N4CCOCC4)cc3)n2)CC1` [Example 4, N-phenyl-4-(2-{[4-(morpholin-4-yl)phenyl]amino}pyrimidin-4-yl)piperazine-1-carboxamide] were 53.7% and 30.8%.
The matching figures for `CC(=O)c1ccc(NC(=O)N2CCN(c3ccnc(Nc4ccc(OCCCN5CCOCC5)cc4)n3)CC2)cc1` [Example 19, N-(4-acetylphenyl)-4-[2-({4-[3-(morpholin-4-yl)propoxy]phenyl}amino)pyrimidin-4-yl]piperazine-1-carboxamide]: 60.9% and 70.9%.
The matching figures for `CC(=O)c1ccc(NC(=O)N2CCC(Nc3nc(Nc4ccc(N5CCOCC5)cc4)ncc3C)C2)cc1` (stereo not shown) [Example 28, N-(4-acetylphenyl)-3-[(5-methyl-2-{[4-(morpholin-4-yl)phenyl]amino}pyrimidin-4-yl)amino]pyrrolidine-1-carboxamide]: 69.3% and 57.3%.
On to `CC(=O)c1ccc(NC(=O)NC2CN(c3nc(Nc4ccc(N5CCOCC5)cc4)ncc3C)C2)cc1` [Example 31, 1-(4-acetylphenyl)-3-[1-(5-methyl-2-{[4-(morpholin-4-yl)phenyl]amino}pyrimidin-4-yl)azetidin-3-yl]urea], for which the inhibition at 0.1 µM on JAK2 is 21.9%; on FLT3, 50%.
Taken in the same sequence, the figures for `NS(=O)(=O)c1ccc(NC(=O)N2CCN(c3ccnc(Nc4ccc(N5CCOCC5)cc4)n3)CC2)cc1` [Example 12, N-(4-aminosulfonylphenyl)-4-(2-{[4-(morpholin-4-yl)phenyl]amino}pyrimidin-4-yl)piperazine-1-carboxamide] were 76% and 69.7%.
Taken in the same sequence, the figures for `CC(=O)c1ccc(NC(=O)N2CCN(c3nc(Nc4ccc(N5CCOCC5)cc4)nc4ccsc34)CC2)cc1` [Example 24, N-(4-acetylphenyl)-4-(2-{[4-(morpholin-4-yl)phenyl]amino}thieno[3,2-d]pyrimidin-4-yl)piperazine-1-carboxamide] were 44% and 68%.
For `CC(=O)c1ccc(NC(=O)N2CCN(c3ccnc(Nc4ccc(OCCN5CCOCC5)cc4)n3)CC2)cc1` [Example 18, N-(4-acetylphenyl)-4-[2-({4-[2-(morpholin-4-yl)ethoxy]phenyl}amino)pyrimidin-4-yl]piperazine-1-carboxamide], the figures for the inhibition at 0.1 µM at JAK2 and on FLT3 were 61.7% and 70.6%, respectively.
The matching figures for `CN1CCN(c2ccc(Nc3nccc(N4CCN(C(=O)Nc5ccc(C(N)=O)cc5)CC4)n3)cc2)CC1` [Example 15, N-(4-carbamoylphenyl)-4-(2-{[4-(4-methylpiperazin-1-yl)phenyl]amino}pyrimidin-4-yl)piperazine-1-carboxamide]: 84% and 85%.
Taken in the same sequence, the figures for `N#Cc1ccc(NC(=O)N2CCN(c3ccnc(Nc4ccc(N5CCOCC5)cc4)n3)CC2)cc1F` [Example 8, N-(4-cyano-3-fluorophenyl)-4-(2-{[4-(morpholin-4-yl)phenyl]amino}pyrimidin-4-yl)piperazine-1-carboxamide] were 63.7% and 70.3%.
The matching figures for `CC(=O)Nc1ccc(NC(=O)N2CCN(c3ccnc(Nc4ccc(N5CCOCC5)cc4)n3)CC2)cc1` [Example 13, N-(4-acetylaminophenyl)-4-(2-{[4-(morpholin-4-yl)phenyl]amino}pyrimidin-4-yl)piperazine-1-carboxamide]: 73% and 70.8%.
With `CC(=O)c1ccc(NC(=O)NC2CCN(c3nc(Nc4ccc(N5CCOCC5)cc4)ncc3C)C2)cc1` (stereo not shown) [Example 29, 1-(4-acetylphenyl)-3-[1-(5-methyl-2-{[4-(morpholin-4-yl)phenyl]amino}pyrimidin-4-yl)pyrrolidin-3-yl]urea], the values for the inhibition at 0.1 µM on JAK2 and at FLT3 were 57.4% and 75.7%, respectively.
Taken in the same sequence, the figures for `CNC(=O)c1ccc(NC(=O)N2CCN(c3ccnc(Nc4ccc(N5CCOCC5)cc4)n3)CC2)cc1` [Example 11, N-(4-methylcarbamoylphenyl)-4-(2-{[4-(morpholin-4-yl)phenyl]amino}pyrimidin-4-yl)piperazine-1-carboxamide] were 68.1% and 35.8%.
Regarding `CC(=O)c1ccc(NC(=O)N2CCN(c3nc(Nc4ccc(N5CCOCC5)cc4)ncc3N)CC2)cc1` [Example 27, N-(4-acetylphenyl)-4-(5-amino-2-{[4-(morpholin-4-yl)phenyl]amino}pyrimidin-4-yl)piperazine-1-carboxamide], the inhibition at 0.1 µM on JAK2 came to 22.8%; on FLT3, 67.9%.
Taken in the same sequence, the figures for `CC(=O)c1ccc(NC(=O)N2CCN(c3ccnc(Nc4ccc(N5CCC(C)CC5)cc4)n3)CC2)cc1` [Example 17, N-(4-acetylphenyl)-4-(2-{[4-(4-methylpiperidin-1-yl)phenyl]amino}pyrimidin-4-yl)piperazine-1-carboxamide] were 53% and 54%.
The matching figures for `O=C(Nc1ccc([N+](=O)[O-])cc1)N1CCN(c2ccnc(Nc3ccc(N4CCOCC4)cc3)n2)CC1` [Example 7, N-(4-nitrophenyl)-4-(2-{[4-(morpholin-4-yl)phenyl]amino}pyrimidin-4-yl)piperazine-1-carboxamide]: 79.3% and 84.4%.
Taken in the same sequence, the figures for `COc1ccc(NC(=O)N2CCN(c3ccnc(Nc4ccc(N5CCOCC5)cc4)n3)CC2)cc1` [Example 1, N-(4-methoxyphenyl)-4-(2-{[4-(morpholin-4-yl)phenyl]amino}pyrimidin-4-yl)piperazine-1-carboxamide] were 48.7% and 21.7%.
For the molecule `COC(=O)c1ccc(NC(=O)N2CCN(c3ccnc(Nc4ccc(N5CCOCC5)cc4)n3)CC2)cc1` [Example 5, N-(4-methoxyformylphenyl)-4-(2-{[4-(morpholin-4-yl)phenyl]amino}pyrimidin-4-yl)piperazine-1-carboxamide], the figures for the inhibition at 0.1 µM on JAK2 and on FLT3 were 64.4% and 62.8%, respectively.
With `NC(=O)c1ccc(NC(=O)N2CCN(c3ccnc(Nc4ccc(N5CCOCC5)cc4)n3)CC2)cc1` [Example 10, N-(4-carbamoylphenyl)-4-(2-{[4-(morpholin-4-yl)phenyl]amino}pyrimidin-4-yl)piperazine-1-carboxamide], the inhibition at 0.1 µM amounted to 76.3% on JAK2 and 71.2% on FLT3.
Taken in the same sequence, the figures for `CCc1ccc(NC(=O)N2CCN(c3ccnc(Nc4ccc(N5CCOCC5)cc4)n3)CC2)cc1` [Example 3, N-(4-ethylphenyl)-4-(2-{[4-(morpholin-4-yl)phenyl]amino}pyrimidin-4-yl)piperazine-1-carboxamide] were 53.3% and 27.4%.
